Assay results as given in ChEMBL document CHEMBL6103591, “Discovery of naphthoquinone-furo-piperidone derivatives as dual targeting agents of STAT3 and NQO1 for the treatment of breast cancer” (Eur J Med Chem, 2025).

What was measured:
[1] = system: MDA-MB-468; assay: Induction of apoptosis in human MDA-MB-468 cells assessed as late apoptotic cells at 1.5 uM measured after 24 hrs by Annexin V/propidium iodide (PI) double staining based flow cytometric analysis (reference value: 2.24 %); assay type: functional
[2] = system: MDA-MB-231; assay: Induction of apoptosis in human MDA-MB-231 cells assessed as early apoptotic cells at 3 uM measured after 24 hrs by Annexin V/propidium iodide (PI) double staining based flow cytometric analysis (reference value: 1.98 %); assay type: functional
[3] = system: MDA-MB-231; assay: Induction of apoptosis in human MDA-MB-231 cells assessed as early apoptotic cells at 1.5 uM measured after 24 hrs by Annexin V/propidium iodide (PI) double staining based flow cytometric analysis (reference value: 1.98 %); assay type: functional
[4] = system: MDA-MB-231; assay: Induction of apoptosis in human MDA-MB-231 cells assessed as late apoptotic cells at 3 uM measured after 24 hrs by Annexin V/propidium iodide (PI) double staining based flow cytometric analysis (reference value: 2.22 %); assay type: functional
[5] = system: MDA-MB-231; assay: Induction of apoptosis in human MDA-MB-231 cells assessed as early apoptotic cells at 3 uM measured after 24 hrs by Annexin V/propidium iodide (PI) double staining based flow cytometric analysis (reference value: 1.99 %); assay type: functional
[6] = system: MDA-MB-231; assay: Antiproliferative activity against human MDA-MB-231 cells assessed as reduction in cell viability incubated for 48 hrs by MTT assay; assay type: functional, cell-based; details: MDA-MB-231, 48 h
[7] = system: MDA-MB-468; assay: Induction of apoptosis in human MDA-MB-468 cells assessed as early apoptotic cells at 3 uM measured after 24 hrs in presence of Z-VAD-FMK by Annexin V/propidium iodide (PI) double staining based flow cytometric analysis (reference value: 4.97 %); assay type: functional
[8] = system: MDA-MB-468; assay: Induction of apoptosis in human MDA-MB-468 cells assessed as early apoptotic cells at 3 uM measured after 24 hrs by Annexin V/propidium iodide (PI) double staining based flow cytometric analysis (reference value: 4.97 %); assay type: functional
[9] = system: MDA-MB-468; assay: Induction of apoptosis in human MDA-MB-468 cells assessed as early apoptotic cells at 1.5 uM measured after 24 hrs by Annexin V/propidium iodide (PI) double staining based flow cytometric analysis (reference value: 2.94 %); assay type: functional
[10] = Cytotoxicity against human MCF-10A cells; assay type: toxicity, cell-based
[11] = system: MDA-MB-231; assay: Induction of apoptosis in human MDA-MB-231 cells assessed as late apoptotic cells at 3 uM measured after 24 hrs in presence of Z-VAD-FMK by Annexin V/propidium iodide (PI) double staining based flow cytometric analysis (reference value: 1.84 %); assay type: functional
[12] = system: MDA-MB-468; assay: Induction of apoptosis in human MDA-MB-468 cells assessed as late apoptotic cells at 3 uM measured after 24 hrs by Annexin V/propidium iodide (PI) double staining based flow cytometric analysis (reference value: 2.24 %); assay type: functional
[13] = system: MDA-MB-231; assay: Induction of apoptosis in human MDA-MB-231 cells assessed as late apoptotic cells at 1.5 uM measured after 24 hrs by Annexin V/propidium iodide (PI) double staining based flow cytometric analysis (reference value: 2.22 %); assay type: functional
[14] = Selectivity ratio of IC50 for cytotoxicity against human MCF-10A cells to IC50 for antiproliferative activity against human MDA-MB-231 cells; assay type: toxicity, cell-based; details: MCF-10A cells versus MDA-MB-231 cells, read-out: Ratio IC50
[15] = system: MDA-MB-468; assay: Antiproliferative activity against human MDA-MB-468 cells assessed as reduction in cell viability incubated for 48 hrs by MTT assay; assay type: functional, cell-based; details: MDA-MB-468, 48 h
[16] = target: Signal transducer and activator of transcription 3 (Homo sapiens, UniProt P40763); assay: Inhibition of STAT3 (unknown origin) activation transfected in HEK293 preincubated for 30 mins followed by IL-6 addition and measured after 24 hrs by luciferase reporter gene assay; assay type: cell-based
[17] = system: MDA-MB-468; assay: Induction of apoptosis in human MDA-MB-468 cells assessed as late apoptotic cells at 3 uM measured after 24 hrs by Annexin V/propidium iodide (PI) double staining based flow cytometric analysis (reference value: 2.12 %); assay type: functional
[18] = system: MCF7; assay: Antiproliferative activity against human MCF7 cells incubated for 48 hrs by MTT assay; assay type: functional, cell-based; details: MCF7, 48 h
[19] = system: MDA-MB-231; assay: Induction of apoptosis in human MDA-MB-231 cells assessed as early apoptotic cells at 3 uM measured after 24 hrs in presence of Z-VAD-FMK by Annexin V/propidium iodide (PI) double staining based flow cytometric analysis (reference value: 1.99 %); assay type: functional
[20] = system: MDA-MB-468; assay: Induction of apoptosis in human MDA-MB-468 cells assessed as late apoptotic cells at 3 uM measured after 24 hrs in presence of Z-VAD-FMK by Annexin V/propidium iodide (PI) double staining based flow cytometric analysis (reference value: 2.12 %); assay type: functional
[21] = system: MDA-MB-468; assay: Induction of apoptosis in human MDA-MB-468 cells assessed as early apoptotic cells at 3 uM measured after 24 hrs by Annexin V/propidium iodide (PI) double staining based flow cytometric analysis (reference value: 2.94 %); assay type: functional
[22] = system: MDA-MB-231; assay: Induction of apoptosis in human MDA-MB-231 cells assessed as late apoptotic cells at 3 uM measured after 24 hrs by Annexin V/propidium iodide (PI) double staining based flow cytometric analysis (reference value: 1.84 %); assay type: functional

Signal transducer and activator of transcription 3, sequence (P40763 whole entry): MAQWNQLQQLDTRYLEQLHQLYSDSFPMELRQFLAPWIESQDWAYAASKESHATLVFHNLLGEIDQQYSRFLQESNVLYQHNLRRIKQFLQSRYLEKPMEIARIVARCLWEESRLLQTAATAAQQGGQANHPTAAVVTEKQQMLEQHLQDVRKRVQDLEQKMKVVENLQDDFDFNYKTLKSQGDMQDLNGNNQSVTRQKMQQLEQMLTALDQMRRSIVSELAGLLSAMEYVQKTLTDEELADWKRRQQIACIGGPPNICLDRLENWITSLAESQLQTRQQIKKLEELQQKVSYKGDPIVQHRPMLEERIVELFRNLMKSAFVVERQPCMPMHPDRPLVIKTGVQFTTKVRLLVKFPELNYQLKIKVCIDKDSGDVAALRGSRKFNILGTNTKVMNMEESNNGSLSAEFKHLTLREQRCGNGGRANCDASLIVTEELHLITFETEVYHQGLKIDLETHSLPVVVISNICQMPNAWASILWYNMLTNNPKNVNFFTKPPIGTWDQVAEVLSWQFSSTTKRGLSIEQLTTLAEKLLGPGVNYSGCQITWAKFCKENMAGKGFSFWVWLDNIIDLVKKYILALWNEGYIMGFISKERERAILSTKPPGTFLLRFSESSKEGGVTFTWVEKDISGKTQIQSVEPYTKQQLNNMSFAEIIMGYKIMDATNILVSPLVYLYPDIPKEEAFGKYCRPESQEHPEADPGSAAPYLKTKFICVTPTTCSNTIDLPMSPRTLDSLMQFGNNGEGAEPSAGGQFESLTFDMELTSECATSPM

IC50 [6]: 0.52 µM | IC50 [15]: 1.48 µM | IC50 [16]: 0.4 µM | IC50 [18]: 1.05 µM
Compound: O=C1C(=O)c2c(oc3c2CCN(CCN2CCCCC2)C3=O)-c2ccccc21
Activity [1]: 4.07% | Activity [2]: 2.94% | Activity [3]: 2.31% | Activity [4]: 25.08% | Activity [5]: 8.01% | Activity [7]: 9.18% | Activity [8]: 17.75% | Activity [9]: 7.36% | IC50 [10]: 3.33 µM | Activity [11]: 13.99% | Activity [12]: 37.57% | Activity [13]: 5.26% | selectivity ratio [14]: ~6 | Activity [17]: 52.62% | Activity [19]: 4.67% | Activity [20]: 8.47% | Activity [21]: 14.73% | Activity [22]: 27.43%
